Measurements taken from patent publication US12649723B2, “Carbonohydrazonoyl dicyanide compounds comprising 2 or more aryl or heteroaryl connected via linker and use thereof” (KOREA INSTITUTE OF SCIENCE AND TECHNOLOGY, priority 2020, dated 2026).

Tests used:
[1] = Liver microsome stability; assay type: in vitro ADME, human; details: amount of substrate remaining; compound 1 μM, 30 minutes, 37° C., NADPH
Method: (§1) The stability of liver microsomes due to the compounds prepared according to Examples 1 to 175 was confirmed. Specifically, four types of liver microsomes (human, dog, rat, and mouse, each 0.25 mg/mL), a 0.1 M phosphate buffer solution (pH 7.4), and each of the compounds at a concentration of 1 μM were mixed and pre-cultured at 37° C. for 5 minutes and further cultured at 37° C. for 30 minutes together with an NADPH generation system solution added thereto. Thereafter, the reaction was terminated by adding an acetonitrile solution containing an internal standard material (chloropropamide) and centrifuged for 5 minutes (14,000 rpm, 4° C.), and then a supernatant was injected into an LC-MS/MS system for analysis of substrate drugs to thereby evaluate metabolic stability due to 8 types of compounds.
(§2) The amount of the substrate remaining after the reaction was analyzed using the Shimadzu Nexera XR system and TSQ Vantage (Thermo). In an HPLC column, Kinetex XB-C18 (2.1 mm×100 mm, particle size of 2.6 μm; Phenomenex, USA) was used, and mobile phases were (A) distilled water containing 0.1% formic acid and (B) acetonitrile containing 0.1% formic acid. Analyst software (version 1.6.3) and Xcalibur (version 1.6.1) were used for data analysis.

[2] = Liver microsome stability; assay type: in vitro ADME, rat; details: amount of substrate remaining; compound 1 μM, 30 minutes, 37° C., NADPH
Method: as §1, §2

[3] = Liver microsome stability; assay type: in vitro ADME, mouse; details: amount of substrate remaining; compound 1 μM, 30 minutes, 37° C., NADPH
Method: as §1, §2

tau protein = biological target: T1, tau protein (Homo sapiens, UniProt P10636); experiment: Tau-BiFC cell model: inhibition of tau protein aggregation; assay type: cell-based; details: for remaining activity at 3 µM: 48 h, compounds marked *: measured at 3 μM, Forskolin-only group = 100% tau protein-aggregated state, read-out: Response; for IC50: Tau BiFC in cells, with Forskolin 30 μM, 48 hours
T1 construct: fused on or other part: Split fluorescent-protein halves for BiFC are fused to tau; In the published tau-BiFC line these are Venus VN173 and VC155
T1 sequence (P10636 2-441 isoform P10636-8 limits assumed): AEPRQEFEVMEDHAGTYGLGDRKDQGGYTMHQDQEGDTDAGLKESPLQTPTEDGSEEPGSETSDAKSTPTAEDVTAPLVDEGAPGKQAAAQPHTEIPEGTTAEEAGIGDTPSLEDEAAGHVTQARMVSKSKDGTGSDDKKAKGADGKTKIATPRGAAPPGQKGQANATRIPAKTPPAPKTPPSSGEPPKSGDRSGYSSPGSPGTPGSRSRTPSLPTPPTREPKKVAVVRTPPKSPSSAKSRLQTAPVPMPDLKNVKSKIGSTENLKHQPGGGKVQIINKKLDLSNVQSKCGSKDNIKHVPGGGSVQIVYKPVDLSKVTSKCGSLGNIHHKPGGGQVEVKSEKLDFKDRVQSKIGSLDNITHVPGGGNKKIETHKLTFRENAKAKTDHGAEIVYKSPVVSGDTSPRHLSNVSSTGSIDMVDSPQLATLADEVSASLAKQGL
How it was run: (§3)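 Tau-BiFC cells were exposed for 48 h to compound (1, 3, 10 μM for screening; 0.03–30 μM for dose-response) plus 30 μM Forskolin to induce aggregation. BiFC fluorescence was normalised to Forskolin-only minus untreated controls, with IC50 from nonlinear regression. Viability was Hoechst-stained nuclei counts relative to Forskolin-only wells.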

Tau-BiFC cells = experiment: Cell viability (cytotoxicity) in tau-BiFC cells, count of stained nuclei; assay type: cell-based; details: compounds marked *: measured at 3 μM; Forskolin-only group = 100% cell viability
How it was run: as §3

CYP1A2 = biological target: T2, CYP1A2 (Homo sapiens, UniProt P05177); experiment: Inhibitory effect on CYP coenzyme activity, human liver microsomes; assay type: in vitro ADME; details: compound 10 μM; human liver microsomes 0.25 mg/mL; substrate phenacetin; 15 minutes
T2 construct: human liver microsomes (0.25 mg/mL); from tissue; host or cells: human liver microsomes
T2 sequence (P05177 1-516): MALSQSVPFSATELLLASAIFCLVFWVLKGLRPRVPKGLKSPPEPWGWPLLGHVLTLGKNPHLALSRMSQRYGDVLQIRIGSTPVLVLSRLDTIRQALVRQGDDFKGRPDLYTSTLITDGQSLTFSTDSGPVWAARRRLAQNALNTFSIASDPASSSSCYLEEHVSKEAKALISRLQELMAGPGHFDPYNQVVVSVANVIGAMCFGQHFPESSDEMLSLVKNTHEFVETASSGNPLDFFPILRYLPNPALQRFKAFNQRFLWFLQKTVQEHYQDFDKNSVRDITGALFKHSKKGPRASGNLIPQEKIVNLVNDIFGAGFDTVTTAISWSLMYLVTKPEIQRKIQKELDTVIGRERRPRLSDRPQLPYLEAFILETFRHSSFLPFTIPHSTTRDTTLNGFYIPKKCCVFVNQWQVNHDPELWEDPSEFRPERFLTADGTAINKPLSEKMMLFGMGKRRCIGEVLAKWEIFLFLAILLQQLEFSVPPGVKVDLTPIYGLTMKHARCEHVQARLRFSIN
Method: (§4) The inhibitory effects of the compounds prepared according to Examples 1 to 175 on CYP coenzyme activity were identified. Specifically, human liver microsomes (0.25 mg/mL), a 0.1 M phosphate buffer solution (pH 7.4), a substrate drug cocktail of five types of drug metabolism enzymes (50 μM phenacetin, 10 μM diclofenac, 100 μM S-mephenytoin, 5 μM dextromethorphan, and 2.5 μM midazolam), and the compound at a concentration of 0 μM or 10 μM were mixed and pre-cultured at 37° C. for 5 minutes, and then further cultured at 37° C. for 15 minutes together with an NADPH generation system solution added thereto. Thereafter, the reaction was terminated by adding an acetonitrile solution containing an internal standard material (terfenadine) and centrifuged for 5 minutes (14,000 rpm, 4° C.), and then a supernatant was injected into an LC-MS/MS system for simultaneous analysis of metabolites of the substrate drugs to thereby evaluate the inhibitory effects on drug metabolism.
(§5) Metabolites of each CYP coenzyme indicator drug generated through the reaction were analyzed using the Shimadzu Nexera XR system and TSQ Vantage (Thermo). In an HPLC column, Kinetex C18 (2.1 mm×100 mm, 2.6 μm, particle size; Phenomenex, USA) was used, and mobile phases were (A) distilled water containing 0.1% formic acid and (B) acetonitrile containing 0.1% formic acid, and a gradient program shown in Table 3 was applied thereto.
(§6) The generated metabolites were quantified using a multiple reaction monitoring (MRM) quantification mode, and Xcalibur (version 1.6.1) was used for data analysis. Inhibitory effects of the novel compound prepared according to the examples of the present invention on CYP coenzyme activity are shown in Table 4 below.

CYP2C19 = biological target: T3, CYP2C19 (Homo sapiens, UniProt P33261); experiment: as above; assay type: in vitro ADME; details: compound 10 μM; human liver microsomes 0.25 mg/mL; substrate S-mephenytoin; 15 minutes
T3 construct: human liver microsomes (0.25 mg/mL); from tissue; host or cells: human liver microsomes
T3 sequence (P33261 whole entry): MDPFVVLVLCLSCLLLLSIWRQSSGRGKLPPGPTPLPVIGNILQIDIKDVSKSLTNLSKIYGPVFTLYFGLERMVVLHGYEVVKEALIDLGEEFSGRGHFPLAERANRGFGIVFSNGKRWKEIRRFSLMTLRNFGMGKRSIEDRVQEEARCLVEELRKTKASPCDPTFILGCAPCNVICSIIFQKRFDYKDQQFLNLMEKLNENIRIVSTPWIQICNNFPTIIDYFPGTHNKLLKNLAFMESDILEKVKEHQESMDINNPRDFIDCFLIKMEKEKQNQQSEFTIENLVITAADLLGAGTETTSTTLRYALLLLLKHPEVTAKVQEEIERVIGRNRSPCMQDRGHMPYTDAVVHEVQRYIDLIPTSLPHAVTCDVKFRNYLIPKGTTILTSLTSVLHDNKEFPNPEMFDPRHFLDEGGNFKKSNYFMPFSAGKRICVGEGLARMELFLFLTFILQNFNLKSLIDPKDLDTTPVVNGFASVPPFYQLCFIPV
Method: as §4, §5, §6

CYP2C9 = biological target: T4, CYP2C9 (Homo sapiens, UniProt P11712); experiment: as above; assay type: in vitro ADME; details: compound 10 μM; human liver microsomes 0.25 mg/mL; substrate diclofenac; 15 minutes
T4 construct: human liver microsomes (0.25 mg/mL); from tissue; host or cells: human liver microsomes
T4 sequence (P11712 whole entry): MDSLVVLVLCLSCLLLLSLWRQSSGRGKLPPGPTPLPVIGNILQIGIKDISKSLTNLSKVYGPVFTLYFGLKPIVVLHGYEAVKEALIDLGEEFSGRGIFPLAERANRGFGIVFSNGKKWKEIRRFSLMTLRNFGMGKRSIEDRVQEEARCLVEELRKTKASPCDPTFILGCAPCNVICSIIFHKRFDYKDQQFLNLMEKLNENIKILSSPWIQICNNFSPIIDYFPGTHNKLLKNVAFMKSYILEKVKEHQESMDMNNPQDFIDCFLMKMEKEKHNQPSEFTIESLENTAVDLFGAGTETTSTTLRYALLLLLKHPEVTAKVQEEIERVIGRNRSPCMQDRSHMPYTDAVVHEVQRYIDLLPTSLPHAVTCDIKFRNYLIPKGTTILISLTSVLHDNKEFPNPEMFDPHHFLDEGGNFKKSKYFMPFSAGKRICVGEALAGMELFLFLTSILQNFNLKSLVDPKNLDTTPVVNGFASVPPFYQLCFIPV
Method: as §4, §5, §6

CYP2D6 = biological target: T5, CYP2D6 (Homo sapiens, UniProt P10635); experiment: as above; assay type: in vitro ADME; details: compound 10 μM; human liver microsomes 0.25 mg/mL; substrate dextromethorphan; 15 minutes
T5 construct: human liver microsomes (0.25 mg/mL); from tissue; host or cells: human liver microsomes
T5 sequence (P10635 whole entry): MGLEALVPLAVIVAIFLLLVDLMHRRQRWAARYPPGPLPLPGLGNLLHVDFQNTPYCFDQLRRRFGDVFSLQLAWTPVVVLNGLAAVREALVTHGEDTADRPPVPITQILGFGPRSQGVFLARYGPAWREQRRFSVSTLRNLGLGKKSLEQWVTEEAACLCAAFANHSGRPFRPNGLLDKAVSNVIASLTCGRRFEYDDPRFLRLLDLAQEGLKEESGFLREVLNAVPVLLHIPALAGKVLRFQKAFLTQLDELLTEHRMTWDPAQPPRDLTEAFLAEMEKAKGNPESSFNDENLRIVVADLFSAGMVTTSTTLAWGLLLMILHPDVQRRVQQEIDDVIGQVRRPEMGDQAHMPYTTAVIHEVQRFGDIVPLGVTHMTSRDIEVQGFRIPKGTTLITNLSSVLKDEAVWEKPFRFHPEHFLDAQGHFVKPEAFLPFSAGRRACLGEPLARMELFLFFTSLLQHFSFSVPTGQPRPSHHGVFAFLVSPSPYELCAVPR
Method: as §4, §5, §6

CYP3A4 = biological target: T6, CYP3A4 (Homo sapiens, UniProt P08684); experiment: as above; assay type: in vitro ADME; details: compound 10 μM; human liver microsomes 0.25 mg/mL; substrate midazolam; 15 minutes
T6 construct: human liver microsomes (0.25 mg/mL); from tissue; host or cells: human liver microsomes
T6 sequence (P08684 whole entry): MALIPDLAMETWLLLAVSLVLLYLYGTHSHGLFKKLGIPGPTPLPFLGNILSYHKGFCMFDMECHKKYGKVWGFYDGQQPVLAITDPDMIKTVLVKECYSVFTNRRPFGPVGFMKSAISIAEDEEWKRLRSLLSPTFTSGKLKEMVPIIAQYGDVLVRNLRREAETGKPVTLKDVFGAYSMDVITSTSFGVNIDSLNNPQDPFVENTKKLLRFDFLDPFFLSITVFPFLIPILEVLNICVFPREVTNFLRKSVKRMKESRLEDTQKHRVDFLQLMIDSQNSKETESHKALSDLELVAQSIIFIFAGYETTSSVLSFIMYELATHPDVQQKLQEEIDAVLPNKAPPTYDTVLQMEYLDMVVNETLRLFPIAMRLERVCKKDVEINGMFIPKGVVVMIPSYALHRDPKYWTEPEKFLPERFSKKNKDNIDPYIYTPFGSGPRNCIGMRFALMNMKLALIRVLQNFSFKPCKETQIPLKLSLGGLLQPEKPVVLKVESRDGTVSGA
Method: as §4, §5, §6

Row | SMILES | Human (%) [1] | Rat (%) [2] | Mouse (%) [3] | remaining activity at 3 µM (tau protein) | IC50 (tau protein) | Cell viability (Tau-BiFC cells) | CYP1A2 (CYP1A2) | CYP2C19 (CYP2C19) | CYP2C9 (CYP2C9) | CYP2D6 (CYP2D6) | CYP3A4 (CYP3A4)
1 | COc1cc(NN=C(C#N)C#N)ccc1OCc1csc(C)n1 [Compound 171, (3-methoxy-4-((2-methylthiazol-4-yl)methoxy)phenyl)carbonohydrazonoyl dicyanide] | 79.2% | 80.3% | 70.3% | – | – | – | – | – | – | – | –
2 | COc1cc(NN=C(C#N)C#N)ccc1OCc1cnccn1 [Compound 159, (3-methoxy-4-(pyrazin-2-ylmethoxy)phenyl)carbonohydrazonoyl dicyanide] | – | – | – | -40% | 7 nM | 114% | 42.4 | 88 | 54.7 | 86.1 | 82.1
3 | COc1cc(NN=C(C#N)C#N)ccc1OCc1nc2ccccc2o1 [Compound 166, (4-(benzo[d]oxazol-2-ylmethoxy)-3-methoxyphenyl)carbonohydrazonoyl dicyanide] | 6.6% | 6.5% | 68.1% | -43% | 214 nM | 121% | – | – | – | – | –
4 | Cc1cc(NN=C(C#N)C#N)ccc1OCc1cc2ccccc2s1 [Compound 150, (4-(benzo[b]thiophen-2-ylmethoxy)-3-methylphenyl)carbonohydrazonoyl dicyanide] | 80.7% | 78.7% | 99.5% | 11% | – | 118% | – | – | – | – | –
5 | Cc1cnc(COc2ccc(NN=C(C#N)C#N)cc2C)cn1 [Compound 147, (3-methyl-4-((5-methylpyrazin-2-yl)methoxy)phenyl)carbonohydrazonoyl dicyanide] | 86.4% | 89% | 91.3% | -19% | 147 nM | 98% | – | – | – | – | –
6 | COc1cc(NN=C(C#N)C#N)ccc1OCc1cnn(C)c1 [Compound 174, (3-methoxy-4-((1-methyl-1H-pyrazol-4-yl)methoxy)phenyl)carbonohydrazonoyl dicyanide] | 72% | 54.3% | >100% | – | – | – | – | – | – | – | –
7 | COc1cc(NN=C(C#N)C#N)ccc1OCc1cccs1 [Compound 172, (3-methoxy-4-(thiophen-2-ylmethoxy)phenyl)carbonohydrazonoyl dicyanide] | 73.3% | 65.3% | 57.3% | – | – | – | – | – | – | – | –
8 | Cc1cc(NN=C(C#N)C#N)ccc1OCc1nc2ccccc2s1 [Compound 157, (4-(benzo[d]thiazol-2-ylmethoxy)-3-methylphenyl)carbonohydrazonoyl dicyanide] | 69.1% | 46% | 33.2% | 8% | – | 124% | – | – | – | – | –
9 | Cc1cc(NN=C(C#N)C#N)ccc1OCc1ccc(C(F)(F)F)cc1 [Compound 148, (3-methyl-4-(4-(trifluoromethyl)benzyloxy)phenyl)carbonohydrazonoyl dicyanide] | 77.4% | 86.3% | >100% | 22% | – | 114% | – | – | – | – | –
10 | COc1cc(NN=C(C#N)C#N)ccc1OCc1cc2ccccc2s1 [Compound 158, (4-(benzo[b]thiophen-2-ylmethoxy)-3-methoxyphenyl)carbonohydrazonoyl dicyanide] | 36.9% | 48.2% | 73.7% | -33% | 268 nM | 96% | – | – | – | – | –
11 | COc1cc(NN=C(C#N)C#N)ccc1OCc1nc2ccccc2[nH]1 [Compound 163, (4-((1H-benzo[d]imidazol-2-yl)methoxy)-3-methoxyphenyl)carbonohydrazonoyl dicyanide] | 86.9% | 71.3% | 59.5% | 91% | – | 106% | – | – | – | – | –
12 | COc1cc(NN=C(C#N)C#N)ccc1OCc1ccc(C(F)(F)F)cc1 [Compound 155, (3-methoxy-4-(4-(trifluoromethyl)benzyloxy)phenyl)carbonohydrazonoyl dicyanide] | 95.4% | 82% | 90.8% | -43% | – | 80% | – | – | – | – | –
13 | COc1cc(NN=C(C#N)C#N)ccc1OCc1nc2ccccc2s1 [Compound 165, (4-(benzo[d]thiazol-2-ylmethoxy)-3-methoxyphenyl)carbonohydrazonoyl dicyanide] | 42.4% | 42.4% | 69.6% | -40% | – | 113% | – | – | – | – | –
14 | COc1cc(NN=C(C#N)C#N)ccc1OCc1cccnn1 [Compound 164, (3-methoxy-4-(pyridazin-3-ylmethoxy)phenyl)carbonohydrazonoyl dicyanide] | 96.8% | 29.1% | 24.6% | -1% | 96 nM | 109% | – | – | – | – | –
15 | COc1cc(NN=C(C#N)C#N)ccc1OCc1cc[nH]n1 [Compound 168, (4-((1H-pyrazol-3-yl)methoxy)-3-methoxyphenyl)carbonohydrazonoyl dicyanide] | 54.8% | 44% | 77.8% | -17% | 132 nM | 123% | – | – | – | – | –
16 | Cc1cc(NN=C(C#N)C#N)ccc1OCc1cccnn1 [Compound 149, (3-methyl-4-(pyridazin-3-ylmethoxy)phenyl)carbonohydrazonoyl dicyanide] | 93.7% | 82.2% | 87.9% | -8% | 185 nM | 124% | – | – | – | – | –
